# Patent US9216964B2, “Hedgehog pathway modulators” (Novartis AG, priority 2008, dated 2015)
# Read-outs that look alike come from different tables or passages of the source.
# Tested on: hedgehog signaling pathway
# Experiment: Gli-Luc Reporter Assay for Hh Pathway Inhibition (TMHh-12 cells, pTA-8×Gli-Luc reporter)
# Format: cell-based, Mouse
# Protocol: Compounds of the present invention are assayed to evaluate their capacity to inhibit the hedgehog signaling pathway.
# Gli-Luc Reporter Assay for Hh Pathway Inhibition
# Mouse TM3 cells (obtained from American Type Culture Collection, ATCC, Manassas, Va.) are cultured in DMEM/F12 medium (Gibco/Invitrogen, Carlsbad, Calif.) supplemented with 5% heat inactivated horse serum and 2.5% FBS (Gibco/Invitrogen, Carlsbad, Calif.), 50 unit/mL penicillin and 50 μg/mL of streptomycin (Gibco/Invitrogen, Carlsbad, Calif.) at […] with 5% CO2 in air atmosphere. TM3 cells were transfected with pTA-8×Gli-Luc reporter plasmid. A stably transfected clone termed TMHh-12 was selected. […] To evaluate the IC50s of the antagonists, 8000 TMHh-12 cells were plated into each wells in 384-well plates with 50% DMEM/F12 medium supplemented with 2% FBS. After 12 hours, Hh pathway is activated by adding recombinant mouse Shh protein (expressed in E. coli, 8 μg/mL) or by adding Smo agonists. The testing compounds are added into plates with different concentrations. After 48 hours, the firefly luciferase luciferase activities are assayed with the Bright-Glo™ Luciferase Assay System (Promega, Madison, Wis.). The IC50 is measured when the effect of the compound reduces the luminescence signal by 50%. Toxicity of these compounds are evaluated in TM3 cells using CellTiter Glo assays or by TM3-Luc cell line (a TM3 cell stably transfected with a constitutive luciferase expression vector).
# [1] = Mus musculus, TMHh12, Ag1.5 1 nM, read-out: Hedgehog Inhibition IC50 (nM) (Ag1.5 1 nM)
# [2] = Mus musculus, TMHh12, enzymatic and cellular assays for the inhibition of hedgehog signaling pathways, read-out: IC50 Ranges
# [3] = enzymatic and cellular assays for the inhibition of hedgehog signaling pathways, read-out: IC50 Ranges
SMILES,IC50 [1],IC50 [2],IC50 [3]
Cc1ccc(Nc2cccc3c2CCN(S(C)(=O)=O)C3)cc1-c1ccc(C#N)cc1 [Compound 102],,1 to 10 nM,
Cc1nc(-c2ccc(-c3cc(Nc4cccc5c4CCN(S(C)(=O)=O)C5)ccc3C)cc2)cs1 [Compound 120],,10 to 100 nM,
OCC(CO)N1CCc2c(cccc2Nc2ccc(Cl)c(-c3ncc(-c4ccccc4)[nH]3)c2)C1 [Compound 34],1.8 nM,1 to 10 nM,
OC[C@H](O)[C@@H](O)CN1CCc2c(cccc2Nc2ccc(Cl)c(-c3ncc(-c4ccccc4)[nH]3)c2)C1 [Compound 48],,1 to 10 nM,
CS(=O)(=O)CC(=O)N1CCc2c(cccc2Nc2ccc(Cl)c(-c3ncc(-c4ccccc4)[nH]3)c2)C1 [Compound 7],0.25 nM,0.001 to 1 nM,
O=C(O)C1(C(=O)N2CCc3c(cccc3Nc3ccc(Cl)c(-c4ncc(-c5ccccc5)[nH]4)c3)C2)CCC1 [Compound 69],1.4 nM,1 to 10 nM,
[O-][n+]1ccc(N2CCc3c(cccc3Nc3ccc(Cl)c(-c4ncc(-c5ccccc5)[nH]4)c3)C2)cc1 [Compound 49],,1 to 10 nM,
Cc1ccc(Nc2cccc3c2CCN(S(C)(=O)=O)C3)cc1-c1ccc(F)cc1 [Compound 122],,100 to 1000 nM,
NC(=O)N1CCc2c(cccc2Nc2ccc(Cl)c(-c3ncc(-c4ccccc4)[nH]3)c2)C1 [Compound 43],4.5 nM,1 to 10 nM,
CS(=O)(=O)N1CCc2c(cccc2Nc2ccc(Cl)c(-c3ccc(C#N)cc3)c2)C1 [Compound 134],,10 to 100 nM,
Cc1ccc(Nc2cccc3c2CCN(S(C)(=O)=O)C3)cc1-c1ncc(-c2ccc(C#N)cc2)[nH]1 [Compound 101],,0.001 to 1 nM,
Cc1ccc(Nc2cccc3c2CCN(S(C)(=O)=O)C3)cc1-c1ccc(CN(C)C)cc1 [Compound 108],,100 to 1000 nM,
CC(O)C(=O)N1CCc2c(cccc2Nc2ccc(Cl)c(-c3ncc(-c4ccccc4)[nH]3)c2)C1 (stereo not drawn) [Compound 10],,0.001 to 1 nM,
Cc1c(Nc2cccc3c2CCN(S(C)(=O)=O)C3)cccc1-c1ccc(C#N)cc1 [Compound 90],490 nM,100 to 1000 nM,
O=S1(=O)CCC(N2CCc3c(cccc3Nc3ccc(Cl)c(-c4ncc(-c5ccccc5)[nH]4)c3)C2)CC1 [Compound 3],0.06 nM,0.001 to 1 nM,
CN(C)CC(C)(C)CN1CCc2c(cccc2Nc2ccc(Cl)c(-c3ncc(-c4ccccc4)[nH]3)c2)C1 [Compound 54],,0.001 to 1 nM,
Cc1ccc(Nc2cccc3c2CCN(S(C)(=O)=O)C3)cc1-c1cnc(N(C)C)nc1 [Compound 124],135 nM,100 to 1000 nM,
CC(C(=O)O)N1CCc2c(cccc2Nc2ccc(Cl)c(-c3ncc(-c4ccccc4)[nH]3)c2)C1 (stereo not drawn) [Compound 58],,1 to 10 nM,
Cc1ccc(Nc2cccc3c2CCN(C2(CO)CC2)C3)cc1-c1nc2ccccc2[nH]1 [Compound 89],,1 to 10 nM,
Cc1ccc(Nc2cccc3c2CCN(C2CCS(=O)(=O)CC2)C3)cc1-c1ncc(-c2cccnc2)[nH]1 [Compound 52],,,10 to 100 nM
Clc1ccc(Nc2cccc3c2CCN(CC2CCOCC2)C3)cc1-c1ncc(-c2ccccc2)[nH]1 [Compound 39],,0.001 to 1 nM,
Cc1ccc(Nc2cccc3c2CCN(CC2(C)CC2)C3)cc1-c1nc2ccccc2[nH]1 [Compound 97],,1 to 10 nM,
Cc1ccc(Nc2cccc3c2CCN(C2CCS(=O)(=O)CC2)C3)cc1-c1ncc(-c2cccnc2)[nH]1 [Compound 75],,,1 to 10 nM
Clc1ccc(Nc2cccc3c2CCN(Cc2cccnc2)C3)cc1-c1ncc(-c2ccccc2)[nH]1 [Compound 51],11 nM,10 to 100 nM,
Cc1ccc(Nc2cccc3c2CCN(S(C)(=O)=O)C3)cc1-c1nc2cc(F)ccc2[nH]1 [Compound 61],,0.001 to 1 nM,
CC(C)N1CCc2c(cccc2Nc2ccc(Cl)c(-c3ncc(-c4ccccc4)[nH]3)c2)C1 [Compound 46],,1 to 10 nM,
Cc1cc2c(cn1)cc(-c1cc(Nc3cccc4c3CCN(S(C)(=O)=O)C4)ccc1C)c(=O)n2C [Compound 116],694 nM,100 to 1000 nM,
CNC(=O)c1cccc(-c2cc(Nc3cccc4c3CCN(S(C)(=O)=O)C4)ccc2C)c1 [Compound 135],4180 nM,1000 to 10000 nM,
CC1(C)CC(N2CCc3c(cccc3Nc3ccc(Cl)c(-c4ncc(-c5ccccc5)[nH]4)c3)C2)CC(C)(C)N1 [Compound 21],0.86 nM,0.001 to 1 nM,
OCC1(N2CCc3c(cccc3Nc3ccc(Cl)c(-c4ncc(-c5ccccc5)[nH]4)c3)C2)CC1 [Compound 84],,0.001 to 1 nM,

# More lines, now with the values ahead:
IC50 [1],IC50 [2],IC50 [3],SMILES
0.1 nM,0.001 to 1 nM,,Cc1ccc(Nc2cccc3c2CCN(S(C)(=O)=O)C3)cc1C(=O)Nc1ccccc1 [Compound 159]
,0.001 to 1 nM,,Cc1ccc(-c2nc(Nc3cccc4c3CCN(S(C)(=O)=O)C4)ccc2C)nc1 [Compound 274]
,10 to 100 nM,,Cc1ccc(Nc2cccc3c2CCN(S(C)(=O)=O)C3)cc1OCc1ccc(C#N)cc1 [Compound 166]
,,1 to 10 nM,Cc1ccc(Nc2cccc3c2CCN([C@@H]2CCS(=O)(=O)C2)C3)cc1-c1ncccc1F [Compound 287]
,1 to 10 nM,,CCOc1cnc(-c2cc(Nc3cccc4c3CCN(CCS(C)(=O)=O)C4)ccc2C)cn1 [Compound 310]
,0.001 to 1 nM,,COc1ccnc(-c2cc(Nc3cccc4c3CCN(S(C)(=O)=O)C4)ccc2C)c1 [Compound 230]
,1 to 10 nM,,CCOc1ccc(-c2cc(Nc3cccc4c3CCN(C3CS(=O)(=O)C3)C4)ccc2C)nn1 [Compound 295]
,100 to 1000 nM,,Cc1cnc(-c2cc(Nc3cccc4c3CCN(CCS(C)(=O)=O)C4)ccc2C)nc1 [Compound 263]
,100 to 1000 nM,,Cc1ccc(Nc2cccc3c2CCN(S(C)(=O)=O)C3)cc1COc1ccccn1 [Compound 237]
,100 to 1000 nM,,Cc1ccc(Nc2cccc3c2CCN(S(C)(=O)=O)C3)cc1-c1ccc(C(=O)N(C)C)cc1 [Compound 138]
,10 to 100 nM,,Clc1ccc(Nc2ccc3c(c2)CN(C2CCOCC2)CC3)cc1-c1nc(-c2ccccc2)c[nH]1 [Compound 346]
,1 to 10 nM,,CCOc1ccc(-c2cc(Nc3cccc4c3CCN([C@H]3CCS(=O)(=O)C3)C4)ccc2C)nn1 [Compound 340]
,0.001 to 1 nM,,Cc1ccc(NC(=O)c2cc(Nc3cccc4c3CCN(S(C)(=O)=O)C4)ccc2C)cc1 [Compound 186]
,100 to 1000 nM,,COc1ccc(Nc2cccc3c2CCN(S(C)(=O)=O)C3)cc1-c1ccc(C#N)cc1 [Compound 149]
,0.001 to 1 nM,,Cc1ccc(Nc2cccc3c2CCN(S(C)(=O)=O)C3)cc1-c1ncc(Cl)cc1F [Compound 290]
,1 to 10 nM,,Cc1ccc(Nc2cccc3c2CCN(CCS(C)(=O)=O)C3)cc1-c1ccc(C(F)(F)F)cn1 [Compound 259]
> 10000 nM,> 10000 nM,,Cc1ccc(Nc2cccc3c2CCN(S(C)(=O)=O)C3)cc1-c1ccc(-c2nnn[nH]2)cc1 [Compound 143]
,10 to 100 nM,,Cc1ccc(Nc2cccc3c2CCN(S(C)(=O)=O)C3)cc1-c1ccc(OC(F)(F)F)cc1 [Compound 137]

IC50 [1],IC50 [2],IC50 [3],SMILES
,10 to 100 nM,,Cc1ccc(Nc2nccc3c2CCN(S(C)(=O)=O)C3)cc1C(=O)Nc1ccccc1 [Compound 247]
,0.001 to 1 nM,,Cc1ccc(-c2cc(Nc3cccc4c3CCN([C@@H]3CCS(=O)(=O)C3)C4)ccc2C)nc1 [Compound 279]
9.8 nM,1 to 10 nM,,COc1ccc(-c2cc(Nc3cccc4c3CCN(C3CS(=O)(=O)C3)C4)ccc2C)nn1 [Compound 276]
,0.001 to 1 nM,,Cc1ccc(-c2cc(Nc3cccc4c3CCN(C3CCS(=O)(=O)CC3)C4)ccc2C)nc1 [Compound 235]
47 nM,10 to 100 nM,,Cc1cc(C#N)ccc1-c1cc(Nc2cccc3c2CCN(S(C)(=O)=O)C3)ccc1C [Compound 163]
,0.001 to 1 nM,,Cc1ccc(Nc2cccc3c2CCN(C2CCS(=O)(=O)CC2)C3)cc1-c1ncccc1F [Compound 269]
,1 to 10 nM,,CCS(=O)(=O)N1CCc2c(cccc2Nc2ccc(C)c(-c3ccc(OC)nn3)n2)C1 [Compound 318]
,0.001 to 1 nM,,Cc1ccc(-c2cc(Nc3cccc4c3CCN(S(C)(=O)=O)C4)ccc2C)nc1 [Compound 169]
,100 to 1000 nM,,Cc1ccc(Nc2ncnc3c2CCN(S(C)(=O)=O)C3)cc1C(=O)Nc1ccccc1 [Compound 301]
,1 to 10 nM,,CS(=O)(=O)N1CCc2c(cccc2Nc2cc(C(=O)Nc3ccccc3)c(Cl)cn2)C1 [Compound 203]
,10 to 100 nM,,Cc1ccc(-c2cc(Nc3ncnc4c3CCN(C3CS(=O)(=O)C3)C4)ccc2C)nc1 [Compound 288]
,,1 to 10 nM,Cc1ccc(Nc2cccc3c2CCN(S(C)(=O)=O)C3)cc1-c1ccc(C(F)(F)F)cn1 [Compound 167]
,100 to 1000 nM,,CS(=O)(=O)N1CCc2c(cccc2Nc2ccc(C#N)c(-c3ccc(C#N)cc3)c2)C1 [Compound 155]
,,1 to 10 nM,CCOc1ccc(-c2cc(Nc3cccc4c3CCN(C3CCS(=O)(=O)C3)C4)ccc2C)nn1 (stereo not drawn) [Compound 323]
,10 to 100 nM,,Cc1ccc(Nc2nccc3c2CCN(S(C)(=O)=O)C3)cc1-c1cc2ccccc2cn1 [Compound 331]
2940 nM,1000 to 10000 nM,,Cc1ccc(Nc2cccc3c2CCN(S(C)(=O)=O)C3)cc1-c1cccc(C(=O)N2CCCC2)c1 [Compound 140]
,1 to 10 nM,,Cc1cccc(-c2cc(Nc3cccc4c3CCN(S(C)(=O)=O)C4)ccc2C)n1 [Compound 191]
